Assay results reported in patent publication US9868763B2, “Modulators of protease activated receptors” (The University of Queensland, priority 2011, dated 2018).

How the values were obtained:
PAR2 [1] = biological target: T1, PAR2 (Mus musculus, UniProt P55086); assay: Intracellular calcium mobilization in MIN6 beta cells; assay type: cell-based; conditions: concentration-dependent
T1 construct: endogenous in cells; host or cells: MIN6 (mouse pancreatic beta cell line)
T1 sequence (P55086 26-399): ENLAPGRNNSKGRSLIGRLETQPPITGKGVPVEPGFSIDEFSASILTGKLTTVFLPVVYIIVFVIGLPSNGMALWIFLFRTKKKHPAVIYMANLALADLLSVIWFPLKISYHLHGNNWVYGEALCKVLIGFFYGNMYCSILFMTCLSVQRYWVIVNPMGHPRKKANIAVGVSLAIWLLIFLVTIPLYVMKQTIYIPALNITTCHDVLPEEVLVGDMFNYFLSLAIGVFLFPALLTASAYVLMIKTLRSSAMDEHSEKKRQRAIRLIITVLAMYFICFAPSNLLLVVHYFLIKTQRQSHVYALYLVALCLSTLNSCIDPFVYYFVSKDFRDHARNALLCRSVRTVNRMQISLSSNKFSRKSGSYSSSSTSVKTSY
Method: Results: Pathogenesis of pancreatic dysfunction is linked to chronic nutritional surplus and elevated fatty acids, so in vivo and in vitro effects of compound 52 were evaluated on rat pancreas and mouse MIN6 beta cells. […] PAR2 agonists and compound 52 were further evaluated in vitro for glucose-stimulated insulin secretion (GSIS) and intracellular calcium mobilization in mouse MIN6 beta cells.

PAR2 [2] = biological target: T2, PAR2 (Homo sapiens, UniProt P55085); assay: PAR2 agonist inhibition (antagonism): intracellular Ca2+ release in HT29 cells; assay type: cell-based; set-up: endogenous in cells; host or cells: HT29 (human colorectal adenocarcinoma); conditions: other ligands; inhibiting Ca2+ release in HT29 cells; 30 min pre-incubation, agonist at EC80
T2 sequence (P55085 26-397): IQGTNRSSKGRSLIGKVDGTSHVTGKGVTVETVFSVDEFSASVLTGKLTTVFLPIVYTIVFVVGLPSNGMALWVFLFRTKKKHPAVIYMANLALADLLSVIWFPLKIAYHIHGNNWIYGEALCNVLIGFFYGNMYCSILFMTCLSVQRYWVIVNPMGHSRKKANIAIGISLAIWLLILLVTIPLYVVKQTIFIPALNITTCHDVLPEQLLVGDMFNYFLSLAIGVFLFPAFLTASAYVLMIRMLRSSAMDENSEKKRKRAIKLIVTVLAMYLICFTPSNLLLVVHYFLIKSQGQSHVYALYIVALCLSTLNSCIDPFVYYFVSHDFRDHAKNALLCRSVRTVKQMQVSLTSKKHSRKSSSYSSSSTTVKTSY
Method: Cells are seeded overnight in 96-well black walled, clear bottomed, plate at approximately 2×10^4 to 4×10^5 cells per well. […] The cells are then washed twice with HBSS and transferred to a Polarstar spectrofluorimeter (BMG, Durham N.C.).
The cells are prepared as outlined above then treated with the ‘putative’ antagonist 30 min prior to the addition of either trypsin or a synthetic agonist at a concentration equal to the agonists EC80.
The cells were then treated with 1 μM of the PAR2 agonist 2f-LIGRLO-NH2 (FIG. 2A, n=5) or 100 nM Trypsin (FIG. 2B, n=1). Each data point represents mean±SEM. Net changes in fluorescence were calculated as a percentage relative to the maximum response given 1 μM 2f-LIGRLO-NH2 or 100 nM Trypsin. Changes in fluorescence (% response) were plotted against logarithmic compound concentrations. The half maximal inhibitory concentration (IC50) values were derived from the dose response curve using a nonlinear regression curve in Graphpad Prism v5.

[3] = tested on: TNBS-induced chronic colitis; assay: TNBS-induced chronic colitis model; assay type: in vivo, rat; conditions: 52 10 mg/kg/day, sulfasalazine 100 mg/kg/day p.o.
Method: On day 0, rats were weighed, given respective treatments of either sulfasalazine (100 mg/kg in olive oil p.o.), compound 52 (10 mg/kg in olive oil), or vehicle (500 l olive oil p.o.), and fasted for 24 h with water supplied ad libitum. The next day (day 1), rats were weighed, dosed with respective compound, and anesthetized with isofluorane. A polyethylene catheter was inserted intrarectally (8 cm). Control and drug-treated animals received an intracolonic dose of TNBS (80 mg/kg in saline and 250 l, 50% ethanol in water) (Fiorucci at al., 2001). Sham animals received vehicle only, with TNBS replaced by equivolume water. Rats were maintained in an inclined position (40°) for 30 min, then allowed to recover with food and water supplied. Rats were dosed daily with the respective compound, weighed, and scored for general health and disease progression. All rats were sacrificed on day 8 of experimentation unless they were sacrificed earlier. Disease progression and post-mortem colonic histopathology was scored by the following methods. PAR2 and tryptase co-localization were investigated by using immunohistochemistry.
DAI for both acute and chronic models was assessed and scored by an expert blinded to treatments. Scores incorporated mobility, gastrointestinal pathology, discomfort, and generalized sickness behaviour criteria (each scored 0-3). Any animal that reached stage 3 in any criteria was euthanized by CO2 inhalation and recorded as a disease-related mortality. Scores were summed and expressed as total disease score (maximum 12). DAI was measured at endpoint only (10 h) in the acute study and daily in the chronic TNBS study.
Colons were dissected post-mortem and given a macroscopic disease score based on that described previously (Bobin-Dubigeon et al., 2001) with some minor alterations (maximal score 14). The entire colon length was removed between the ileocolic and colorectal junction. Length and maximal distension width were measured. Sections of affected colon were taken for biochemical analysis, histology, and wet/dry weight.

[4] = tested on: 2furoyl-LIGRLO-NH2-induced paw oedema; assay: PAR2 agonist-induced paw oedema; assay type: in vivo, Wistar rat; conditions: 10 mg/kg p.o. in olive oil, agonist 350 μg/paw 2 h after oral dose
Method: The methods used are based on those previously described (Kelso, E. B., et al. Arthritis Rheum 2007, 56, 765-71; Kelso, E. B., et al. J Pharmacol Exp Ther 2006, 316, 1017-24; and Vergnolle, N. J Immunol 1999, 163, 5064-9). Male Wistar rats (n=3 per group) are used. Briefly, rats are given either 5 or 10 mg/kg of a compound of the present invention (p.o. via gavage in olive oil, approx. 500 μL, weight adjusted). Control animals receive only olive oil (500 μL p.o.). Two hours later, the PAR2 agonist 2-furoyl-LIGRLO (350 μg/paw in saline, 100 μL) is injected into the plantar surface (i.pl.) of the right paw pad using a 30 G needle. The left paw acts as a control, receiving saline only. Paw thickness and width are measured after 30 minutes and hourly using digital calipers (World Precision Instruments, USA) and swelling is calculated in area (mm^2; thickness multiplied by width) and expressed as a percentage change from baseline of each individual paw.
Based on previous methods (Kelso E B et al., J Pharmacol Exp Ther 2006, 316(3):1017-24; Suen J Y et al., Br J Pharmacol 2011, doi: 10.1111/j.1476-5381.2011.01610.x.), PAR2 antagonist 52 (10 mg/kg s.c.; n=4), ENMD-1068 (100 mg/kg s.c.; n=4) or vehicle control (DMSO s.c.; n=2) were administered to male Wistar rats. Baseline paw thickness and width were measured using digital calipers (World Precision Instruments, USA) expressed in area (mm^2; thickness×width). Fifteen minutes later, 2Furoyl-LIGLRO-NH2 (350 μg/paw in 100 μL saline) was injected into of the right hind paw pad (intraplantar, i.pl.). The left hind paw acted as a control, receiving saline only. In a separate experiment, vehicle (500 μL olive oil) versus PAR2 antagonist 52 (10 mg/kg p.o. in 500 μL olive oil) only were administered orally to two groups of rats (4 per group). Two hours later, β-tryptase (human recombinant lung, 20 μg in 100 μL saline) was injected into the right hind paw pad (vehicle in left for control) of all animals in each group. In all experiments, paw swelling was measured and expressed in area (mm^2; thickness×width) and plotted as % change from baseline of each individual paw.

[5] = Stability in rat liver homogenate; assay type: in vitro ADME, Wistar rat; conditions: 37 °C, up to 180 min
Method: Blood and liver is collected form non-drug dosed male and female Wistar rats (aged 8-9 weeks, 200-250 g and 250-300 g respectively). Bloods are centrifuged at 8 K rpm for 5 min. Plasma are pooled and stored at −80° C. for later use. The rat livers are homogenized, diluted with three volumes of PBS, cloth filtered. The filtrate is used directly for stability studies.
Each compound is dissolved in DMSO to make 5 mM stock solution. 10 μL of the stock is diluted with either rat plasma or liver homogenate (490 μL) to make up a starting concentration of […] (triplicates). The mixtures are vortexed and incubated at 37° C. At each time point of 0, 30, 60 and 180 minutes, 100 μL of the mixture is taken and diluted with 300 μL of acetonitrile. The mixture is vortexed and centrifuged. 350 μL of the liquid is transferred into a microfuge tube and concentrated using a rotational vacuum concentrator (Christ Beta-RVC, supplied by Quantum Scientific). 100 μL of acetonitrile-water (9:1, v/v) is added to the residue, vortexed and immediately analysed by LCMS/MS. Data from these experiments are expressed as percent of peak area recorded from the LCMS/MS trace at time zero (t0).

PAR2 [6] = biological target: T2, PAR2; conditions: cited from earlier work

trypsin
intracellular calcium release in MIN6 beta cells (PAR2 [1]): activated intracellular calcium release

CC[C@H](C)[C@@H](NC(=O)[C@H](CC1CCCCC1)NC(=O)c1ccno1)C(=O)N1CCC2(CCc3ccccc32)CC1 [Compound 53]
IC50 (PAR2 [2]): 3 µM

SLIGRL-NH2
intracellular calcium release in MIN6 beta cells (PAR2 [1]): activated intracellular calcium release

CC[C@H](C)[C@@H](NC(=O)[C@H](CC1CCCCC1)NC(=O)c1nc[nH]n1)C(=O)N1CCC2(C=Cc3ccccc32)CC1 [Compound 45]
IC50 (PAR2 [2]): 15 µM

CC[C@H](C)[C@H](C(=O)N1CCC2(C=Cc3ccccc32)CC1)N(C)C(=O)[C@@H](N)CC1CCCCC1 [Compound 51]
IC50 (PAR2 [2]): 5 to 10 µM

O=C(O)c1cc(/N=N/c2ccc(S(=O)(=O)Nc3ccccn3)cc2)ccc1O [sulfasalazine, reference compound]
TNBS-mediated mortality [3]: 33.3% | DAI compared with TNBS-controls ([3]; from day 2 onward): marked improvements in DAI

CC[C@H](C)[C@H](NC(=O)[C@H](CC1CCCCC1)NC(=O)c1ccno1)C(=O)N1CCC(c2ccccc2)CC1 [Compound 30, 5-isoxazoyl-Cha-Ile-(4-phenyl)piperidine]
paw swelling induced by 2-f-LIGRLO-NH2 [4]: reduced the paw swelling | stability in rat liver homogenate [5]: decomposed to varied degree

2-furoyl-LIGRL-NH2
agonist potency higher than SLIGRL-NH2 (PAR2 [6]): ~20 fold | selectivity among PARs (PAR2 [6]): selective for PAR2 over PAR1 and PAR4

CC[C@H](C)[C@@H](NC(=O)[C@@H](N)CC1CCCCC1)C(=O)N1CCC2(C=Cc3ccccc32)CC1 [Compound 41]
IC50 (PAR2 [2]): 17 µM

CC[C@H](C)[C@@H](NC(=O)[C@H](CC1CCCCC1)NC(=O)C1CCCN1)C(=O)N1CCC2(C=Cc3ccccc32)CC1 (some centres unmarked) [Compound 50]
IC50 (PAR2 [2]): 50 µM

CC[C@H](C)[C@@H](NC(=O)[C@H](CC1CCCCC1)NC(=O)c1c[nH]cn1)C(=O)N1CCC2(C=Cc3ccccc32)CC1 [Compound 47]
IC50 (PAR2 [2]): 10 µM

CC[C@H](C)[C@@H](NC(=O)[C@H](CC1CCCCC1)NC(=O)C1CCC(=O)N1)C(=O)N1CCC2(C=Cc3ccccc32)CC1 (some centres unmarked) [Compound 49]
IC50 (PAR2 [2]): 25 µM

CC[C@H](C)[C@@H](NC(=O)[C@H](CC1CCCCC1)NC(=O)C1CCNCC1)C(=O)N1CCC2(C=Cc3ccccc32)CC1 [Compound 48]
IC50 (PAR2 [2]): 50 µM

CC[C@H](C)[C@H](NC(=O)[C@H](CC1CCCCC1)NC(=O)c1ccno1)C(=O)NCc1ccccc1OC [Compound 18, 5-isoxazoyl-Cha-Ile-aminomethyl-(2-methoxy)phenyl]
paw swelling induced by 2-f-LIGRLO-NH2 [4]: reduced the paw swelling | stability in rat liver homogenate [5]: decomposed to varied degree

CC[C@H](C)[C@@H](NC(=O)[C@H](CC1CCCCC1)NC(=O)c1cc(N)no1)C(=O)N1CCC2(C=Cc3ccccc32)CC1 [Compound 42, 5-(3-amino-isoxazoyl)-Cha-Ile-spiro[indene-1,4′-piperidine]]
paw swelling induced by 2-f-LIGRLO-NH2 [4]: reduced the paw swelling | stability in rat liver homogenate [5]: decomposed to varied degree

CO[C@H](C)[C@@H](NC(=O)[C@H](CC1CCCCC1)NC(=O)c1ccno1)C(=O)N1CCC2(C=Cc3ccccc32)CC1 [Compound 44, 5-isoxazoyl-Cha-Thr(Me)-spiro[indene-1,4′-piperidine]]
paw swelling induced by 2-f-LIGRLO-NH2 [4]: reduced the paw swelling | stability in rat liver homogenate [5]: decomposed to varied degree

CC[C@H](C)[C@@H](NC(=O)[C@H](CC1CCCCC1)NC(=O)c1cc(C)on1)C(=O)N1CCC2(C=Cc3ccccc32)CC1 [Compound 46]
IC50 (PAR2 [2]): 25 µM
